Results on 15 molecules are retold here after US12162888B2, “Carboxamides as ubiquitin-specific protease inhibitors” (Valo Early Discovery, Inc., priority 2018, dated 2024).

For one experiment, the target named is T1, USP28 (His-tagged USP28-FL-mammalian) (Homo sapiens, UniProt Q96RU2).
T1 construct: Expression of USP28 (1-1077)-TEV-6*His (pTT5 vector) was carried out in Expi293f cells; made in house; host or cells: Expi293F cells (pTT5 vector)
T1 sequence (Q96RU2 1-1077): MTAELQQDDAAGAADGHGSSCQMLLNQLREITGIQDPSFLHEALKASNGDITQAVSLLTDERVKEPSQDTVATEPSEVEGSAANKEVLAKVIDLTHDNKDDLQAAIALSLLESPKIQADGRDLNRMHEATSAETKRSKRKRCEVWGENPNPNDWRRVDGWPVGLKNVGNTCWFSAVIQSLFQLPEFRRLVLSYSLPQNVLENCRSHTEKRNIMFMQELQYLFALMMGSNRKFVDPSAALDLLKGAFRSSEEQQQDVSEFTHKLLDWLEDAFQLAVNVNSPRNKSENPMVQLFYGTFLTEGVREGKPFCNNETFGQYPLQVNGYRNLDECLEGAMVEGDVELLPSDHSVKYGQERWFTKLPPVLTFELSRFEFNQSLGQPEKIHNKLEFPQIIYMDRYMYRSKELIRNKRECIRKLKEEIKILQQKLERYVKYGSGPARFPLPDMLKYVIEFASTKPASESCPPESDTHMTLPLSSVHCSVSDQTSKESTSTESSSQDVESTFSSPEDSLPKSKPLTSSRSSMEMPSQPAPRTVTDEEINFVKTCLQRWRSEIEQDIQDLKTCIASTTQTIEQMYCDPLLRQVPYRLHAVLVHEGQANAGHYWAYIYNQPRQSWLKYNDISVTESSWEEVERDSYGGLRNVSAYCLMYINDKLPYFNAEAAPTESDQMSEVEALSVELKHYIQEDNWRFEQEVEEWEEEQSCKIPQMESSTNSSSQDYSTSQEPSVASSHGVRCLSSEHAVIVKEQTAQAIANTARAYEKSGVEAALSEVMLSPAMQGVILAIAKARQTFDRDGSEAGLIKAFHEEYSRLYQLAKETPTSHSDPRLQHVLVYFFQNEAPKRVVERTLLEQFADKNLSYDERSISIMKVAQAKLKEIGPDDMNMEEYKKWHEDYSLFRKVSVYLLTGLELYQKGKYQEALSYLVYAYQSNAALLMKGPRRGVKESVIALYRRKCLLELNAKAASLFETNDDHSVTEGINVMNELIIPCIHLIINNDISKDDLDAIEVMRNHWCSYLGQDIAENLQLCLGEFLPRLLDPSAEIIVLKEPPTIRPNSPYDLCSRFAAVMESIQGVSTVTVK
Description: Ubiquitin-Rhodamine 110 Assay for USP28 Activity, Example A-1(a). Type of experiment: biochemical. The following applies: Ubiquitin-Rhodamine 110 assay, read-out: USP28 A-1(a) IC50 range. How it is done:
Example A-1(a): Biochemical Assay: Ubiquitin-Rhodamine 110 Assay for USP28 Activity
The assay was performed in a final volume of 9 μL in assay buffer containing 20 mM Tris-HCl (pH 8.0, (1M Tris-HCl, pH 8.0 solution; Corning 46-031-CM)), 3 mM BME (2-Mercaptoethanol; Sigma 63689-25ML-F), 0.03% BGG (0.22 μM filtered, Sigma, G7516-25G), and 0.01% Triton X-100 (Sigma, T9284-10L). Nanoliter quantities of 10-point, 3-fold serial dilution in DMSO was pre-dispensed into 1536 assay plates (Corning, #3724BC) for a final test concentration of 25 μM to 1.3 nM, top to lowest dose, respectively. Enzyme USP28, construct His-tagged USP28-FL-mammalian, (protein expression and purification procedure described below). Concentration and incubation times were optimized for the maximal signal-to-background while maintaining initial velocity conditions at a fixed substrate concentration. The final concentration of the enzyme in the assay was […]. Final substrate (Ub-Rh110; Ubiquitin-Rhodamine 110, UbiQ-126) concentration was 25 nM with [Ub-Rh110]<<Km. 3 μL of 2× enzyme was added to assay plates (pre-stamped with compound) preincubated with […] for 30 minutes and then 3 μL of 2× Ub-Rh110 was added to assay plates. Plates were incubated for 45 minutes at room temperature before addition of 3 μL of stop solution (final concentration of 10 mM citric acid (Sigma, 251275-500G)). Fluorescence was read on the Envision (Excitation at 485 nm and Emission at 535 nm; Perkin Elmer) or on the PheraSTAR (Excitation at 485 nm and Emission at 535 nm; BMG Labtech).
Procedure for the Protein expression and purification for construct His-tagged USP28-FL-mammalian
Expression of USP28 (1-1077)-TEV-6*His (pTT5 vector) was carried out in Expi293f cells (sequence derived from uniprot ID: Q96RU2-1). Cells were re-suspended in lysis buffer B 50 mM Bicine, pH 8.0, 20 mM NaCl, 5% glycerol, 0.1% CHAPS, 5 mM β-ME, 1 mM PMSF, 1 ug/ml Leupeptin, 1 ug/ml Pepstatin) and lysed by sonication. Insoluble material was removed by centrifugation and the supernatant was loaded onto a Ni-NTA column (GE Healthcare) equilibrated with Ni Buffer A (50 mM Bicine, pH 8.0, 20 mM NaCl, 5% glycerol, 0.1% CHAPS, 5 mM R-ME.) and washed with Ni Buffer A+20 mM imidazole until A280 reached baseline. The protein was eluted with Ni Buffer B (50 mM Bicine, pH 8.0, 20 mM NaCl, 5% glycerol, 0.1% CHAPS, 5 mM β-ME, 300 mM imidazole.). The protein was further purified using a Superdex™ 200 10/300 GL column (GE Healthcare) equilibrated with 50 mM Bicine, pH 8.0, 20 mM NaCl, 5% glycerol, 0.1% CHAPS, 5 mM β-ME. The protein was concentrated to 2.5 mg ml-1, flash-frozen in liquid N2 and stored at −80° C.
For assay formats Example A-1(a), A-1(b), and A-2, data were reported as percent inhibition compared with control wells based on the following equation: % inh=1−((FLU−AveLow)/(AveHigh−AveLow)) where FLU=measured Fluorescence, AveLow=average Fluorescence of no enzyme control (n=16), and AveHighh=average Fluorescence of DMSO control (n=16). IC50 values were determined by curve fitting of the standard 4 parameter logistic fitting algorithm included in the Activity Base software package: IDBS XE Designer Model 205. Data is fitted using the Levenburg Marquardt algorithm.
As to `Cc1ccc2c(N)c(C(=O)N[C@H]3CCc4nc(N5CC6CC(C5)N6)ccc4C3)sc2n1` [Example 23-10, 3-amino-N-[(6S)-2-{3,6-diazabicyclo[3.1.1]heptan-3-yl}-5,6,7,8-tetrahydroquinolin-6-yl]-6-methylthieno[2,3-b]pyridine-2-carboxamide], the IC50 lay within 50 to 200 nM. Consider `CO[C@@H]1CN(c2ccc3c(c2F)OC[C@H](NC(=O)c2sc4nc(C)ccc4c2N)C3)C[C@H]1N` [Example 91, 3-amino-N-[(3R)-7-[(3R,4R)-3-amino-4-methoxypyrrolidin-1-yl]-8-fluoro-3,4-dihydro-2H-1-benzopyran-3-yl]-6-methylthieno[2,3-b]pyridine-2-carboxamide], for which the IC50 was 200 to 2000 nM. On to `CO[C@]1(C)CN(c2ccc3c(c2)OC[C@H](NC(=O)c2sc4nc(C)ccc4c2N)C3)C[C@H]1N` [Example 282, 3-amino-N-[(3R)-7-[(3R,4R)-4-amino-3-methoxy-3-methylpyrrolidin-1-yl]-3,4-dihydro-2H-1-benzopyran-3-yl]-6-methylthieno[2,3-b]pyridine-2-carboxamide], for which the IC50 was 200 to 2000 nM. On the same count and under the same terms, to `Cc1ccc2c(N)c(C(=O)N[C@H]3COc4cc(N5CC[C@@]6(C5)OCC[C@H]6N)ccc4C3)sc2n1` [Example 409, 3-amino-N-[(3R)-7-[(4R,5S)-4-amino-1-oxa-7-azaspiro[4.4]nonan-7-yl]-3,4-dihydro-2H-1-benzopyran-3-yl]-6-methylthieno[2,3-b]pyridine-2-carboxamide] belongs 1 to 50 nM.

Staying with this experiment, now noted: Ubiquitin-Rhodamine 110 biochemical assay, read-out: USP28 A-1(a) IC50 range.
As for “3-amino-N-[(6S)-2-[(3R,4S)-3-(methoxymethyl)-4-[(^2H3)methylamino]pyrrolidin-1-yl]-5,6,7,8-tetrahydroquinolin-6-yl]-6-methylthieno[2,3-b]pyridine-2-carboxamide [Example 487]”, the IC50 was 200 to 2000 nM. As for “3-amino-N-[(6S)-2-[(3S,4R)-3-(methoxymethyl)-4-[(^2H3)methylamino]pyrrolidin-1-yl]-5,6,7,8-tetrahydroquinolin-6-yl]-6-methylthieno[2,3-b]pyridine-2-carboxamide [Example 486]”, the IC50 lay within 50 to 200 nM.

In the case of `COCC(F)(F)[C@H]1CN(c2ccc3c(n2)CC[C@H](NC(=O)c2sc4nc(C)ccc4c2N)C3)C[C@@H]1N` [Example 480, 3-amino-N-[(6S)-2-[(3R,4S)-3-amino-4-(1,1-difluoro-2-methoxyethyl)pyrrolidin-1-yl]-5,6,7,8-tetrahydroquinolin-6-yl]-6-methylthieno[2,3-b]pyridine-2-carboxamide], the IC50 fell in the range of 50 to 200 nM. As to `CO[C@@H](C)CO[C@H]1CN(c2ccc3c(n2)CC[C@H](NC(=O)c2sc4nc(C)ccc4c2N)C3)C[C@@H]1N` [Example 481, 3-amino-N-[(6S)-2-[(3S,4S)-3-amino-4-[(2S)-2-methoxypropoxy]pyrrolidin-1-yl]-5,6,7,8-tetrahydroquinolin-6-yl]-6-methylthieno[2,3-b]pyridine-2-carboxamide], the IC50 was 50 to 200 nM. Take `CO[C@H](C)CO[C@H]1CN(c2ccc3c(n2)CC[C@H](NC(=O)c2sc4nc(C)ccc4c2N)C3)C[C@@H]1N` [Example 482, 3-amino-N-[(6S)-2-[(3S,4S)-3-amino-4-[(2R)-2-methoxypropoxy]pyrrolidin-1-yl]-5,6,7,8-tetrahydroquinolin-6-yl]-6-methylthieno[2,3-b]pyridine-2-carboxamide]: the IC50 lay within 50 to 200 nM. Consider `COC[C@@H](C)O[C@@H]1CN(c2ccc3c(n2)CC[C@H](NC(=O)c2sc4nc(C)ccc4c2N)C3)C[C@H]1N` [Example 483, 3-amino-N-[(6S)-2-[(3R,4R)-3-amino-4-{[(2R)-1-methoxypropan-2-yl]oxy}pyrrolidin-1-yl]-5,6,7,8-tetrahydroquinolin-6-yl]-6-methylthieno[2,3-b]pyridine-2-carboxamide], for which the IC50 is 50 to 200 nM. The same measure, in the same setting: with `Cc1ccc2c(N)c(C(=O)N[C@H]3CCc4nc(N5C[C@@H](COC(F)(F)F)[C@@H](N)C5)ccc4C3)sc2n1` [Example 484, 3-amino-N-[(6S)-2-[(3R,4R)-3-amino-4-[(trifluoromethoxy)methyl]pyrrolidin-1-yl]-5,6,7,8-tetrahydroquinolin-6-yl]-6-methylthieno[2,3-b]pyridine-2-carboxamide] the figure was 200 to 2000 nM; with `Cc1ccc2c(N)c(C(=O)N[C@H]3CCc4nc(N5C[C@H](COC(F)(F)F)[C@H](N)C5)ccc4C3)sc2n1` [Example 485, 3-amino-N-[(6S)-2-[(3S,4S)-3-amino-4-[(trifluoromethoxy)methyl]pyrrolidin-1-yl]-5,6,7,8-tetrahydroquinolin-6-yl]-6-methylthieno[2,3-b]pyridine-2-carboxamide], 50 to 200 nM.

Turning to `CN[C@H]1CN(c2ccc3c(n2)CC[C@H](NC(=O)c2sc4nc(C)ccc4c2N)C3)C[C@H]1COC` [Example 488, 3-amino-N-[(6S)-2-[(3R,4R)-3-(methoxymethyl)-4-(methylamino)pyrrolidin-1-yl]-5,6,7,8-tetrahydroquinolin-6-yl]-6-methylthieno[2,3-b]pyridine-2-carboxamide], the IC50 lay in the range of 50 to 200 nM. As for `CN[C@@H]1CN(c2ccc3c(n2)CC[C@H](NC(=O)c2sc4nc(C)ccc4c2N)C3)C[C@@H]1COC` [Example 489, 3-amino-N-[(6S)-2-[(3S,4S)-3-(methoxymethyl)-4-(methylamino)pyrrolidin-1-yl]-5,6,7,8-tetrahydroquinolin-6-yl]-6-methylthieno[2,3-b]pyridine-2-carboxamide], the IC50 was 50 to 200 nM.

Still in this experiment, the particulars now being: biochemical IC50 range, Ubiquitin-Rhodamine 110 assay, read-out: USP28 A-1(a).
As for `Cc1ccc2c(N)c(C(=O)N[C@H]3COc4cc(N5C[C@@H](N)[C@]6(C5)OCC[C@H]6C)ccc4C3)sc2n1` (single isomer, unassigned) [Example 612-4], the IC50 lay within 1 to 50 nM.
